Experimental data reported in patent US20220184008A1, “MODULATORS OF INTRACELLULAR CHLORIDE CONCENTRATION” (FONDAZIONE ISTITUTO ITALIANO DI TECNOLOGIA, priority 2019, published 2022).

System: NKCC1
Assay: Calcium kinetic assay in primary cultures of immature hippocampal neurons
Type: cell-based
Details: 10 μM; immature neurons 3 DIV; Table 1
Experimental: FIG. 2: In vitro testing of the NKCC1 inhibitors in a calcium kinetic assay. a) Example traces of fluorescence levels upon application of GABA (100 μM) and KCl (90 mM) used to trigger calcium influx in primary neuronal cultures treated after 3 days in culture (3 DIV) with vehicle, bumetanide, furosemide and compounds 3.8, 3.13 and 3.17 in the calcium kinetic assay. b) Quantification of the average fluorescence increase upon GABA application normalized to the increase upon KCl application in neurons treated with bumetanide, furosemide and 3 exemplary compounds (3.8, 3.13, 3.17) (10 μM, 100 μM). Data represents mean±sem from 5 independent experiments, and they are presented as % of the control. *P<0.05, **P<0.01, ***P<0.001 Kruskal-Wallis Anova (Dunn's Post hoc Test).
Next, the compounds of the invention were tested for their ability to revert the depolarizing GABAergic signaling in immature neurons. This effect was indirectly measured as calcium influx into the cells with an in vitro calcium kinetic assay in primary cultures of hippocampal neurons. The calcium kinetic assay exploits the physiological, endogenous, high expression of NKCC1 in immature neurons, which causes depolarizing actions of GABA and can activate voltage-gated Ca^2+ channels. Thus, in immature neurons, a compound that blocks NKCC1 is predicted to inhibit Ca^2+ responses upon GABA application. Immature neurons were cultured for 3 days in vitro (3 DIV) and loaded for 15 min with a calcium-sensitive dye (Fluo4). Then, the neurons were treated with bumetanide and furosemide (as positive controls) or with each of the selected compounds for 15 min. As a functional readout, the fluorescence level was monitored in these cultures before and after application of GABA (100 μM, for 20 sec). To test for neuronal viability at the end of the experiment, KCl was applied (90 mM, for 40 sec), which strongly depolarizes neurons, causing high activation of voltage-gated Ca^2+ channels in live cells. To quantify how bumetanide, furosemide, and selected compounds influenced NKCC1 inhibition, the fluorescence values were normalized upon GABA application to the fluorescence levels upon KCl application in treated neurons.

SMILES | NKCC1 Inhibition % 10 μM Neurons Calcium kinetic assay [%]
CCOc1cc(NCCCCCCCC(F)(F)F)c(S(=O)(=O)N(C)C)cc1C(=O)O [Compound 12.9] | 12.2
CN(C)S(=O)(=O)c1cc(C(=O)O)c(OC2CCCC2)cc1NCCCCCCCC(F)(F)F [Compound 12.10] | 26.6
COc1cc(NCCCCCCCC(F)(F)F)c(S(=O)(=O)N(C)C)cc1C(=O)O [Compound 13.1, 5-(N,N-dimethylsulfamoyl)-2-methoxy-4-((8,8,8-trifluorooctyl)amino)benzoic acid] | 14.2
O=C(O)c1ccc(NCCCCCCCC(F)(F)F)c(S(=O)(=O)N2CCOCC2)c1 [Compound 14.3, 3-morpholinosulfonyl-4-((8,8,8-trifluorooctyl)amino)benzoic acid] | 7.1
O=C(O)c1ccc(NCCCCCCCC(F)(F)F)c(S(=O)(=O)N2CCC(F)(F)CC2)c1 [Compound 14.4, 3-((4,4-difluoropiperidin-1-yl)sulfonyl)-4-((8,8,8-trifluorooctyl)amino)benzoic acid] | 48.0
